# Measured values taken from PubChem BioAssay AID1259407 (Chemical Carcinogenesis Research Information System (CCRIS), 2018).
# Calls of active or inactive are those of the source. The rule behind the calls is not given here.
# Test system: CCRIS mutagenicity, Ames/micronucleus/aberration tests
# Test: CCRIS mutagenicity studies
# [1] = Test System: AMES SALMONELLA TYPHIMURIUM, Strain/Indicator: TA98, Metabolic Activation: NONE, Method: PREINCUBATION
# [2] = Test System: AMES SALMONELLA TYPHIMURIUM, Strain/Indicator: TA100, Metabolic Activation: NONE, Method: PREINCUBATION
# [3] = Test System: AMES SALMONELLA TYPHIMURIUM, Strain/Indicator: TA102, Metabolic Activation: NONE, Method: PREINCUBATION
# [4] = Test System: AMES SALMONELLA TYPHIMURIUM, Strain/Indicator: TA102, Metabolic Activation: RAT, LIVER, S-9, AROCLOR 1254, Method: PREINCUBATION
# [5] = Test System: AMES SALMONELLA TYPHIMURIUM, Strain/Indicator: TA98, Metabolic Activation: NONE, Method: STANDARD PLATE
# [6] = Test System: AMES SALMONELLA TYPHIMURIUM, Strain/Indicator: TA98, Metabolic Activation: RAT, LIVER, S-9, AROCLOR 1254, Method: STANDARD PLATE
# [7] = Test System: AMES SALMONELLA TYPHIMURIUM, Strain/Indicator: TA100, Metabolic Activation: NONE, Method: STANDARD PLATE
# [8] = Test System: AMES SALMONELLA TYPHIMURIUM, Strain/Indicator: TA100, Metabolic Activation: RAT, LIVER, S-9, AROCLOR 1254, Method: STANDARD PLATE
# [9] = Test System: AMES SALMONELLA TYPHIMURIUM, Strain/Indicator: TA1535, Metabolic Activation: NONE, Method: STANDARD PLATE
# [10] = Test System: AMES SALMONELLA TYPHIMURIUM, Strain/Indicator: TA1537, Metabolic Activation: NONE, Method: STANDARD PLATE
# [11] = Test System: AMES SALMONELLA TYPHIMURIUM, Strain/Indicator: TA1538, Metabolic Activation: NONE, Method: STANDARD PLATE
structure (smiles),measurement,setting,value
CC(=O)O,mutagenic call,"Test System: AMES SALMONELLA TYPHIMURIUM, Strain/Indicator: TA97, Metabolic Activation: HAMSTER, LIVER, S-9, AROCLOR 1254 (10%), Method: PREINCUBATION",inactive; negative
same,mutagenic call,"Test System: AMES SALMONELLA TYPHIMURIUM, Strain/Indicator: TA97, Metabolic Activation: HAMSTER, LIVER, S-9, AROCLOR 1254 (30%), Method: PREINCUBATION",inactive; negative
same,mutagenic call,"Test System: AMES SALMONELLA TYPHIMURIUM, Strain/Indicator: TA97, Metabolic Activation: NONE, Method: PREINCUBATION",inactive; negative
same,mutagenic call,"Test System: AMES SALMONELLA TYPHIMURIUM, Strain/Indicator: TA97, Metabolic Activation: RAT, LIVER, S-9, AROCLOR 1254 (10%), Method: PREINCUBATION",inactive; negative
same,mutagenic call,"Test System: AMES SALMONELLA TYPHIMURIUM, Strain/Indicator: TA97, Metabolic Activation: RAT, LIVER, S-9, AROCLOR 1254 (30%), Method: PREINCUBATION",inactive; negative
same,mutagenic call,"Test System: AMES SALMONELLA TYPHIMURIUM, Strain/Indicator: TA97, Metabolic Activation: RAT, LIVER, S-9, AROCLOR 1254, Method: PREINCUBATION",inactive; negative
same,mutagenic call,"Test System: AMES SALMONELLA TYPHIMURIUM, Strain/Indicator: TA98, Metabolic Activation: HAMSTER, LIVER, S-9, AROCLOR 1254 (10%), Method: PREINCUBATION",inactive; negative
same,mutagenic call,"Test System: AMES SALMONELLA TYPHIMURIUM, Strain/Indicator: TA98, Metabolic Activation: HAMSTER, LIVER, S-9, AROCLOR 1254 (30%), Method: PREINCUBATION",inactive; negative
same,mutagenic call,[1],inactive; negative
same,mutagenic call,"Test System: AMES SALMONELLA TYPHIMURIUM, Strain/Indicator: TA98, Metabolic Activation: RAT, LIVER, S-9, AROCLOR 1254 (10%), Method: PREINCUBATION",inactive; negative
same,mutagenic call,"Test System: AMES SALMONELLA TYPHIMURIUM, Strain/Indicator: TA98, Metabolic Activation: RAT, LIVER, S-9, AROCLOR 1254 (30%), Method: PREINCUBATION",inactive; negative
same,mutagenic call,"Test System: AMES SALMONELLA TYPHIMURIUM, Strain/Indicator: TA100, Metabolic Activation: HAMSTER, LIVER, S-9, AROCLOR 1254 (10%), Method: PREINCUBATION",inactive; negative
same,mutagenic call,"Test System: AMES SALMONELLA TYPHIMURIUM, Strain/Indicator: TA100, Metabolic Activation: HAMSTER, LIVER, S-9, AROCLOR 1254 (30%), Method: PREINCUBATION",inactive; negative
same,mutagenic call,[2],inactive; negative
same,mutagenic call,"Test System: AMES SALMONELLA TYPHIMURIUM, Strain/Indicator: TA100, Metabolic Activation: RAT, LIVER, S-9, AROCLOR 1254 (10%), Method: PREINCUBATION",inactive; negative
same,mutagenic call,"Test System: AMES SALMONELLA TYPHIMURIUM, Strain/Indicator: TA100, Metabolic Activation: RAT, LIVER, S-9, AROCLOR 1254 (30%), Method: PREINCUBATION",inactive; negative
same,mutagenic call,[3],inactive; negative
same,mutagenic call,[4],inactive; negative
same,mutagenic call,"Test System: AMES SALMONELLA TYPHIMURIUM, Strain/Indicator: TA1535, Metabolic Activation: HAMSTER, LIVER, S-9, AROCLOR 1254 (10%), Method: PREINCUBATION",inactive; negative
same,mutagenic call,"Test System: AMES SALMONELLA TYPHIMURIUM, Strain/Indicator: TA1535, Metabolic Activation: HAMSTER, LIVER, S-9, AROCLOR 1254 (30%), Method: PREINCUBATION",inactive; negative
same,mutagenic call,"Test System: AMES SALMONELLA TYPHIMURIUM, Strain/Indicator: TA1535, Metabolic Activation: NONE, Method: PREINCUBATION",inactive; negative
same,mutagenic call,"Test System: AMES SALMONELLA TYPHIMURIUM, Strain/Indicator: TA1535, Metabolic Activation: RAT, LIVER, S-9, AROCLOR 1254 (10%), Method: PREINCUBATION",inactive; negative
same,mutagenic call,"Test System: AMES SALMONELLA TYPHIMURIUM, Strain/Indicator: TA1535, Metabolic Activation: RAT, LIVER, S-9, AROCLOR 1254 (30%), Method: PREINCUBATION",inactive; negative
Cn1cccc1,mutagenic call,[1],inactive; negative
same,mutagenic call,"Test System: AMES SALMONELLA TYPHIMURIUM, Strain/Indicator: TA98, Metabolic Activation: RAT, LIVER, S-9, AROCLOR 1254, Method: PREINCUBATION",inactive; negative
same,mutagenic call,[2],inactive; negative
same,mutagenic call,"Test System: AMES SALMONELLA TYPHIMURIUM, Strain/Indicator: TA100, Metabolic Activation: RAT, LIVER, S-9, AROCLOR 1254, Method: PREINCUBATION",inactive; negative
same,mutagenic call,[3],inactive; negative
same,mutagenic call,[4],inactive; negative
CN1COCN(Cc2cnc(Cl)s2)/C1=N/[N+](=O)[O-],mutagenic call,"End Point: IN VIVO MICRONUCLEUS, Test System: BONE MARROW POLYCHROMATIC ERYTHROCYTES, Species: RAT, Strain/Sex: WISTAR/FEMALE, Route: ORAL (GAVAGE)",active; positive
same,mutagenic call,"End Point: IN VIVO MICRONUCLEUS, Test System: POLYCHROMATIC ERYTHROCYTES FROM COLONIC CRYPT EPITHELIAL CELLS, Species: RAT, Strain/Sex: WISTAR/FEMALE, Route: ORAL (GAVAGE)",active; positive
COC/C(=C/c1ccccc1)OC,mutagenic call,"Test System: AMES SALMONELLA TYPHIMURIUM, Strain/Indicator: TA97, Metabolic Activation: NONE, Method: STANDARD PLATE",inactive; negative
same,mutagenic call,"Test System: AMES SALMONELLA TYPHIMURIUM, Strain/Indicator: TA97, Metabolic Activation: RAT, LIVER, S-9, AROCLOR 1254, Method: STANDARD PLATE",inactive; negative
same,mutagenic call,[5],inactive; negative
same,mutagenic call,[6],inactive; negative
same,mutagenic call,[7],inactive; negative
same,mutagenic call,[8],inactive; negative
same,mutagenic call,[9],inactive; negative
same,mutagenic call,"Test System: AMES SALMONELLA TYPHIMURIUM, Strain/Indicator: TA1535, Metabolic Activation: RAT, LIVER, S-9, AROCLOR 1254, Method: STANDARD PLATE",inactive; negative
same,mutagenic call,[10],active; positive
same,mutagenic call,"Test System: AMES SALMONELLA TYPHIMURIUM, Strain/Indicator: TA1537, Metabolic Activation: RAT, LIVER, S-9, AROCLOR 1254, Method: STANDARD PLATE",inactive; negative
same,mutagenic call,[11],inactive; negative
same,mutagenic call,"Test System: AMES SALMONELLA TYPHIMURIUM, Strain/Indicator: TA1538, Metabolic Activation: RAT, LIVER, S-9, AROCLOR 1254, Method: STANDARD PLATE",inactive; negative
C1CSCCS1,mutagenic call,[6],inactive; negative
same,mutagenic call,"Test System: AMES SALMONELLA TYPHIMURIUM, Strain/Indicator: TA98, Metabolic Activation: S-9, Method: STANDARD PLATE",inactive; negative
same,mutagenic call,[8],inactive; negative
same,mutagenic call,"Test System: AMES SALMONELLA TYPHIMURIUM, Strain/Indicator: TA100, Metabolic Activation: S-9, Method: STANDARD PLATE",inactive; negative
same,mutagenic call,[9],inactive; negative
same,mutagenic call,"Test System: AMES SALMONELLA TYPHIMURIUM, Strain/Indicator: TA1535, Metabolic Activation: S-9, Method: STANDARD PLATE",inactive; negative
same,mutagenic call,[10],inactive; negative
same,mutagenic call,"Test System: AMES SALMONELLA TYPHIMURIUM, Strain/Indicator: TA1537, Metabolic Activation: S-9, Method: STANDARD PLATE",inactive; negative
same,mutagenic call,[11],inactive; negative
same,mutagenic call,"Test System: AMES SALMONELLA TYPHIMURIUM, Strain/Indicator: TA1538, Metabolic Activation: S-9, Method: STANDARD PLATE",inactive; negative
Nc1ccc(-c2ccc(Cl)cc2)cc1,mutagenic call,[5],inactive; negative
same,mutagenic call,[6],active; positive
same,mutagenic call,[7],inactive; negative
same,mutagenic call,[8],active; positive
